Data from patent EP0709099A2, “An aqueous nasal suspension comprising cyclodextrin” (Senju Pharmaceutical Co., Ltd., priority 1994, dated 1996).

Assay: Stability constant of the drug in relation to cyclodextrin (solubility method, Higuchi et al.)
Type: physicochemical
Details: 25°C, 24 hours shaking
Experimental: The stability constant of the drug in relation to cyclodextrin calculated by the solubility method is determined in the manner that, with the concentration of each drug being kept unchanged, a mixture of the drug and a cyclodextrin solution of varying concentration is shaken on a shaker at the rate of 200 cycles/min at 25°C for 24 hours to construct a solubility phase diagram of the drug at saturation in cyclodextrin solution and the stability constant is calculate by the method of Higuchi et al. [Advances in Analytical Chemistry and Instrumentation, Vol. 4, 144-148 (1965)].
The stability constant of the drug in relation to cyclodextrin was calculated applying the formula (8) on page 146, in "Advances in Analytical Chemistry and Instrumentation", Vol. 4, (1965).

Stability Constant α-CyD | Stability Constant β-CyD | Compound
54 | 911 | CC(=O)[C@@]1(O)CC[C@H]2[C@@H]3C[C@H](C)C4=CC(=O)C=C[C@]4(C)[C@@]3(F)[C@@H](O)C[C@@]21C [Fluorometholone]
114 | 305 | CCOC(=O)O[C@]1(C(=O)OCCl)CC[C@H]2[C@@H]3CCC4=CC(=O)C=C[C@]4(C)[C@H]3[C@@H](O)C[C@@]21C [Loteprednol Etabonate]
